pIC50: −log10 of the molar value.
Assays:
PI3K beta (PI3Kb) = molecular target: T1, PI3K beta (PI3Kb) (Homo sapiens, UniProt P42338); test: kinobeads assay, PI3K beta; type: binding; settings: Jurkat cell lysate, read-out: Inhibition values (IC50) PI3Kb
T1 construct: Jurkat cells were homogenized in a Potter S homogenizer in lysis buffer; endogenous in cells; host or cells: Jurkat, clone E6-1 (ATCC TIB-152) lysate
Procedure: (§1) The compounds of the present invention as described were tested in the mTOR kinobeads assay as described below. Briefly, test compounds (at various concentrations) and the affinity matrix (1:1 mixture of beads with immobilized phenylthiazole ligand 1 and beads with immobilized phenylmorpholin-chromen ligand; WO 2009/098021) were added to cell lysate aliquots and allowed to bind to the proteins in the lysate sample. After the incubation time the beads with captured proteins were separated from the lysate. Bound proteins were then eluted and the presence of mTOR, PI3K alpha (PI3Kα), PI3K beta (PI3Kb), PI3K gamma (PI3Kg), PI3K delta (PI3Kd) and DNA-dependent protein kinase (DNA-PK) was detected and quantified using a specific antibody in a dot blot procedure and the Odyssey infrared detection system. Dose response curves for individual kinases were generated and IC50 values calculated. Kinobeads assays for PI3 kinases (WO-A 2008/015013) and for kinase selectivity profiling (WO 2009/098021) have been previously described.
(§2) The affinity matrix (beads with immobilized phenylmorpholin-chromen ligand) was washed three times with 15 ml of 1×DP buffer containing 0.2% NP40 (IGEPAL® CA-630, Sigma, #13021) and then resuspended in 5.5 ml of 1×DP buffer containing 0.2% NP40 (10% beads slurry).
(§3) 5×DP buffer: 250 mM Tris-HCl pH 7.4, 25% Glycerol, 7.5 mM MgCl2, 750 mM NaCl, 5 mM Na3VO4, filter the 5×-lysis buffer through 0.22 μm filter and store in aliquots at −80° C. The 5×DP buffer is diluted to 1×DP buffer containing 1 mM DTT and 25 mM NaF.
(§4) Stock solutions of test compounds were prepared in DMSO. In a 96 well plate 30 μl solution of diluted test compounds at 5 mM in DMSO were prepared. Starting with this solution a 1:3 dilution series (9 steps) was prepared. For control experiments (no test compound) a buffer containing 2% DMSO was used. Compound PI-103 served as a positive control (Calbiochem catalogue number 528100).
(§5) Jurkat cells (ATCC catalogue number TIB-152 Jurkat, clone E6-1) were grown in 1 liter Spinner flasks (Integra Biosciences, #182101) in suspension in RPMI 1640 medium (Invitrogen, #21875-034) supplemented with 10% Fetal Bovine Serum (Invitrogen) at a density between 0.15×10^6 and 1.2×10^6 cells/ml. Cells were harvested by centrifugation, washed once with 1×PBS buffer (Invitrogen, #14190-094) and cell pellets were frozen in liquid nitrogen and subsequently stored at −80° C.
(§6) Jurkat cells were homogenized in a Potter S homogenizer in lysis buffer: 50 mM Tris-HCl, 0.8% NP40, 5% glycerol, 150 mM NaCl, 1.5 mM MgCl2, 25 mM NaF, 1 mM sodium vanadate, 1 mM DTT, pH 7.5. One complete EDTA-free tablet (protease inhibitor cocktail, Roche Diagnostics, 1873580) per 25 ml buffer was added. The material was dounced 10 times using a mechanized POTTER S, transferred to 50 ml falcon tubes, incubated for 30 minutes on ice and spun down for 10 min at 20,000 g at 4° C. (10,000 rpm in Sorvall SLA600, precooled). The supernatant was transferred to an ultracentrifuge (UZ)-polycarbonate tube (Beckmann, 355654) and spun for 1 hour at 100.000 g at 4° C. (33.500 rpm in Ti50.2, precooled). The supernatant was transferred again to a fresh 50 ml falcon tube, the protein concentration was determined by a Bradford assay (BioRad) and samples containing 50 mg of protein per aliquot were prepared. The samples were immediately used for experiments or frozen in liquid nitrogen and stored frozen at −80° C.
(§7) Jurkat cell lysate (approximately 50 mg protein per plate) was thawed in a water bath at room temperature and then kept on ice. To the thawed cell lysate 1×DP 0.8% NP40 buffer containing protease inhibitors (1 tablet for 25 ml buffer; EDTA-free protease inhibitor cocktail; Roche Diagnostics 1873580) was added in order to reach a final protein concentration of 5 mg/ml total protein. The diluted cell lysate was stored on ice. […]

PI3K gamma (PI3Kg) = molecular target: T2, PI3K gamma (PI3Kg) (Homo sapiens, UniProt P48736); test: kinobeads assay, PI3K gamma; type: binding; settings: Jurkat cell lysate, read-out: Inhibition values (IC50) PI3Kg
T2 construct: Jurkat cells were homogenized in a Potter S homogenizer in lysis buffer; endogenous in cells; host or cells: Jurkat, clone E6-1 (ATCC TIB-152) lysate
T2 sequence (P48736 whole entry): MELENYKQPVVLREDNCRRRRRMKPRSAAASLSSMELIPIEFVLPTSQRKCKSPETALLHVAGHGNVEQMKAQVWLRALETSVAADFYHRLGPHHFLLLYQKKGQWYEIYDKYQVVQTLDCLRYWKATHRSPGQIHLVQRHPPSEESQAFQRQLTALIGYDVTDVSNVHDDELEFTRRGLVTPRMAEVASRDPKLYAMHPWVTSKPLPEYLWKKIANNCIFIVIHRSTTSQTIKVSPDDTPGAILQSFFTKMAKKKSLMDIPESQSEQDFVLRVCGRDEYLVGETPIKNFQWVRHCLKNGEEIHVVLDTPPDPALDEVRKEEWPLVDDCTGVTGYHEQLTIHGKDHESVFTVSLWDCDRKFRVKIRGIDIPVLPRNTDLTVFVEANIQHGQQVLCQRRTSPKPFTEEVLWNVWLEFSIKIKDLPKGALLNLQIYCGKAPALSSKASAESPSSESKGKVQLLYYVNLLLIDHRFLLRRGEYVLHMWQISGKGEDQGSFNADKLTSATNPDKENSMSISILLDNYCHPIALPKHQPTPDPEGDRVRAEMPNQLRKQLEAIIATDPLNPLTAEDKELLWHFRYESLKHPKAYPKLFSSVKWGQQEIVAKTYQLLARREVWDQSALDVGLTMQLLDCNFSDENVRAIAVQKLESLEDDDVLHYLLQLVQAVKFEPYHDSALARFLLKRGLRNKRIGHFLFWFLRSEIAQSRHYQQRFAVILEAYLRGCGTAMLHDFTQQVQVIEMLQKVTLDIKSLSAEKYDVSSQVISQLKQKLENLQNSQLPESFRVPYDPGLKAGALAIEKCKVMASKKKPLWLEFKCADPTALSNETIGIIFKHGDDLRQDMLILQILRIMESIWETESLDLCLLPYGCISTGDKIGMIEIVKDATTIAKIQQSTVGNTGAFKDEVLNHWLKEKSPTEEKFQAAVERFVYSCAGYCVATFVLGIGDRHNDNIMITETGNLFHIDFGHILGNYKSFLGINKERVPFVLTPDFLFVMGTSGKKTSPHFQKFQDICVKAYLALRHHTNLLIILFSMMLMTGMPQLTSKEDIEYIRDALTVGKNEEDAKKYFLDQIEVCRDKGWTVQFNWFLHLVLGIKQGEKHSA
Procedure: as §1, §2, §3, §4, §5, §6, §7

mTOR = molecular target: T3, mTOR (Homo sapiens, UniProt P42345); test: mTOR kinobeads assay (Jurkat cell lysate, dot blot detection); type: binding; settings: read-out: Inhibition values (IC50) mTor
T3 construct: Jurkat cells were homogenized in a Potter S homogenizer in lysis buffer; endogenous in cells; host or cells: Jurkat, clone E6-1 (ATCC TIB-152) lysate
Procedure: as §1, §2, §3, §4, §5, §6, §7

[1] = molecular target: T4, DNA-dependent protein kinase (DNA-PK) (Homo sapiens, UniProt P78527); test: kinobeads assay, DNA-PK; type: binding; settings: Jurkat cell lysate, read-out: Inhibition values (IC50) DNA-PK
T4 construct: Jurkat cells were homogenized in a Potter S homogenizer in lysis buffer; endogenous in cells; host or cells: Jurkat, clone E6-1 (ATCC TIB-152) lysate
Procedure: as §1, §2, §3, §4, §5, §6, §7

PI3K delta (PI3Kd) = molecular target: T5, PI3K delta (PI3Kd) (Homo sapiens, UniProt O00329); test: kinobeads assay, PI3K delta; type: binding; settings: Jurkat cell lysate, read-out: Inhibition values (IC50) PI3Kd
T5 construct: Jurkat cells were homogenized in a Potter S homogenizer in lysis buffer; endogenous in cells; host or cells: Jurkat, clone E6-1 (ATCC TIB-152) lysate
T5 sequence (O00329 whole entry): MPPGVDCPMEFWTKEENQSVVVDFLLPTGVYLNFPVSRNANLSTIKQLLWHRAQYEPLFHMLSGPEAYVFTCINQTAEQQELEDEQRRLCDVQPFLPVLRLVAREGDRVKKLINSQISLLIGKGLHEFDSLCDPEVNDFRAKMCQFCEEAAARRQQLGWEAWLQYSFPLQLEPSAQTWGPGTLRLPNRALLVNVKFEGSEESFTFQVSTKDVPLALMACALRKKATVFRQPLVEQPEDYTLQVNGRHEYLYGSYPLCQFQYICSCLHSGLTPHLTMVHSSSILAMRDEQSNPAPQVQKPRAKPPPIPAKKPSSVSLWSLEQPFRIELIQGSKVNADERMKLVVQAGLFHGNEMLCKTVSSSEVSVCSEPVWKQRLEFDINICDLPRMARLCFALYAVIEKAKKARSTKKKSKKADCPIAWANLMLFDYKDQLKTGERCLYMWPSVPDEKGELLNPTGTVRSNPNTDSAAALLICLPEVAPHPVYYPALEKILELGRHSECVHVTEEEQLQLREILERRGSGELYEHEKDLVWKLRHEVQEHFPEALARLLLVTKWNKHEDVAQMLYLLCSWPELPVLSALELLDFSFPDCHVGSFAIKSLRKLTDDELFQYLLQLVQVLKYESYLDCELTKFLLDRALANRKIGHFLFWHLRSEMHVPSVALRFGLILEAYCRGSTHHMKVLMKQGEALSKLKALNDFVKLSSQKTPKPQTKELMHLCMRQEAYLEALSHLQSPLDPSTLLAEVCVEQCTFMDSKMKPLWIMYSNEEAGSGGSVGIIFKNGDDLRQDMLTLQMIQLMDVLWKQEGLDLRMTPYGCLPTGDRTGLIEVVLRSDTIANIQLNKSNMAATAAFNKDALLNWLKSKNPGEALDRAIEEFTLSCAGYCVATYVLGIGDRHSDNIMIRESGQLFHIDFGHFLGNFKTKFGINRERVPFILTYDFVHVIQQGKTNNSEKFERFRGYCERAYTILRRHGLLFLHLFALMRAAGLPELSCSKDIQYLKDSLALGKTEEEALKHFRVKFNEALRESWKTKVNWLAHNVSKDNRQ
T5 sequence (P27986 whole entry partner): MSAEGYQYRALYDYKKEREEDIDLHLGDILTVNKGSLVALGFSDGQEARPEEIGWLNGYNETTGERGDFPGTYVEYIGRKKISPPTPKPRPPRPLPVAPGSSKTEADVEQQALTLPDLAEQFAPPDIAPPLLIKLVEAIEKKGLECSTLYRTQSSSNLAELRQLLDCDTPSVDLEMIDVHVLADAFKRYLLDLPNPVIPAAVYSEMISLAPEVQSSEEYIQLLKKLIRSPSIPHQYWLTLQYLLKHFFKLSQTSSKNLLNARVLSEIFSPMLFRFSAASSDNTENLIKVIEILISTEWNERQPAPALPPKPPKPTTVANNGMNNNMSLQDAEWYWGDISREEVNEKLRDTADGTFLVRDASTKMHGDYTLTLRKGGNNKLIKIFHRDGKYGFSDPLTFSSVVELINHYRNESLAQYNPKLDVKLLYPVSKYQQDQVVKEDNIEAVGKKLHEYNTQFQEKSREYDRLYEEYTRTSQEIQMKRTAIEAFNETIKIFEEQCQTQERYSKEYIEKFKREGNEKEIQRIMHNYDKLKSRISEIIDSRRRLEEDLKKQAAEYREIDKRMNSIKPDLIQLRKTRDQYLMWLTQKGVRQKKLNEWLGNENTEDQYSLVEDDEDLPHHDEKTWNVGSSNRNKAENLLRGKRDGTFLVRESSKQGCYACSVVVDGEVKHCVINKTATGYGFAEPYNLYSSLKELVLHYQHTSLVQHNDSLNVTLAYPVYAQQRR
Procedure: as §1, §2, §3, §4, §5, §6, §7

PI3K alpha (PI3Kα) = molecular target: T6, PI3K alpha (PI3Kα) (Homo sapiens, UniProt P42336); test: kinobeads assay, PI3K alpha; type: binding; settings: Jurkat cell lysate, read-out: Inhibition values (IC50) PI3Ka
T6 construct: Jurkat cells were homogenized in a Potter S homogenizer in lysis buffer; endogenous in cells; host or cells: Jurkat, clone E6-1 (ATCC TIB-152) lysate
T6 sequence (P42336 whole entry): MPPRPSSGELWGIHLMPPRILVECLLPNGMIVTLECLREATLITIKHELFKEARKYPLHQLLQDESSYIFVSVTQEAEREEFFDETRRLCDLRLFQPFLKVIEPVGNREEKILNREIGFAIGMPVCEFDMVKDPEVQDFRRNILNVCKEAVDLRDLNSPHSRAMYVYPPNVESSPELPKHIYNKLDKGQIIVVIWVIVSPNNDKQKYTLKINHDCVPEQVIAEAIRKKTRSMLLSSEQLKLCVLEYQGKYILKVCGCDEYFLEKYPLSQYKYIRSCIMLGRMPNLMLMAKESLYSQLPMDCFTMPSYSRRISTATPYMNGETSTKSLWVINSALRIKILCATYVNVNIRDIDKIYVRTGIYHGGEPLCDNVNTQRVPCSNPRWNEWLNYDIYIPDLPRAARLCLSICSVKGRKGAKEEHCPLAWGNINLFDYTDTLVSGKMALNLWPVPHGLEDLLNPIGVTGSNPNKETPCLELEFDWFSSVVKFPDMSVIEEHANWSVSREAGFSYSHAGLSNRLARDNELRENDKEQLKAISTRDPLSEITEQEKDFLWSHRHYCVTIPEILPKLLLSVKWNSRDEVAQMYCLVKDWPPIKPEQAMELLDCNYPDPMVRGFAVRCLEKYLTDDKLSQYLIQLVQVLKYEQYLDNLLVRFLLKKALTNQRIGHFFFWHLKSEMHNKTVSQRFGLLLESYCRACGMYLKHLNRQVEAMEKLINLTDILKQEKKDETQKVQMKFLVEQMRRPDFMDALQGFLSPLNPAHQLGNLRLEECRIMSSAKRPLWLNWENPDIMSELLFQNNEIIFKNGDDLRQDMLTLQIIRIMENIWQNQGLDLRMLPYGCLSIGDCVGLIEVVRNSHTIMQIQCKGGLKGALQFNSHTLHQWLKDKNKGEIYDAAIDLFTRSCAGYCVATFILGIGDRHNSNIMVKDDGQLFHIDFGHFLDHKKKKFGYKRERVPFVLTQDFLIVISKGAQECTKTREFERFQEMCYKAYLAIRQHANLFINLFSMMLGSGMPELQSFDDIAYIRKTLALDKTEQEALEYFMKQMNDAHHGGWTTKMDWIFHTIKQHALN
T6 sequence (P27986 whole entry partner): as the sequence (P27986 whole entry partner) above
Procedure: as §1, §2, §3, §4, §5, §6, §7

[2] = system: S6RP serine-240/244 phosphorylation; test: In vitro phospho-S6 cellular assay (HEK293T/17); type: cell-based; settings: Homo sapiens; HEK293T/17 cells, 2 hours, pS6RP Ser240/244; read-out: Inhibition values (IC50) pS6
Text: Activation of mTOR signaling results in phosphorylation of several downstream targets. In cells, mTOR exists in two different protein complexes. The mTOR Complex-1 (mTORC1) phosphorylates and activates S6 Kinase 1 (S6K1) and S6 Kinase 2 (S6K2) (also known as p70S6K) which then phosphorylate S6 Ribosomal Protein (S6RP) (also known as RPS6)3. S6RP is phosphorylated on serine 235, senile 236, serine 240 and serine 244 by both pS6K1 and pS6K2. The mTOR Complex-2 (mTORC2) phosphorylates AKT on serine 473 which activates the AKT signaling pathway.
The assay measures a test compound's inhibition of S6RP serine-240/244 phosphorylation and inhibition of Akt serine-473 phosphorylation in human embryonic kidney derived HEK293T/17 cells (ATCC CRL-11268).
The HEK293T/17 cell line is maintained in DMEM media (Invitrogen catalogue number 41965-039) supplemented with 10% FCS at 37° C. in a 5% CO2 humidified incubator. Cells are seeded in 96-well plates at 40,000 cells/well (pS6RP S240/244 assay) or 80,000 cells/well (pAkt 5473 assay) in 90 μl growth media (DMEM, 2% FCS). Plates are incubated for 1 hour in a humidified incubator to allow the cells to adhere. Cells are treated with 8 concentrations of test compounds or DMSO alone for controls (final DMSO concentration 0.1%) and incubated at 37° C. for 2 hours. Then 20 μl of 5× concentrated lysis buffer (750 mM NaCl, 100 mM Tris pH7.4, 5 mM ADTA, 5 mM EGTA, 5% Triton X-100) is added, plates are sealed and incubated for 15 minutes at 4° C. with gentle shaking After cell lysis, 25 μl cell lysate is transferred to a MesoScale plate coated with an antibody to pS6RP Ser240/244 (MesoScale Discovery K150DGD-3) or an antibody to pAkt Ser 473 (MesoScale Discovery K151DGD-3). Plates have been blocked before by incubation with 150 μl MesoScale Discovery Blocking Solution-A for 1 hour at room temperature followed by washing with 150 μl 1×Tris wash buffer per well. After the transfer of the cell lysate to the MSD plate, the pS6RP (or pAkt) protein is captured on the coated antibody by incubation at room temperature for 1 hour with gentle shaking. After the capture step the plate is washed three times with 150 μl of 1× Tris wash buffer per well. Then 25 μl detection antibody conjugated with a Sulfo-Tag is added and incubated for 1 hour at room temperature with gentle shaking. Subsequently the antibody solution is removed and the plate is washed 3 times with 150 μl 1×Tris wash buffer per well and 150 μl Read buffer is added. The plates are analysed on a MSD 2400 Plate Reader (MesoScale Discovery). Data analysis is performed using nonlinear regression for a sigmoidal dose-response with a variable slope.

T1 sequence (P42338 whole entry): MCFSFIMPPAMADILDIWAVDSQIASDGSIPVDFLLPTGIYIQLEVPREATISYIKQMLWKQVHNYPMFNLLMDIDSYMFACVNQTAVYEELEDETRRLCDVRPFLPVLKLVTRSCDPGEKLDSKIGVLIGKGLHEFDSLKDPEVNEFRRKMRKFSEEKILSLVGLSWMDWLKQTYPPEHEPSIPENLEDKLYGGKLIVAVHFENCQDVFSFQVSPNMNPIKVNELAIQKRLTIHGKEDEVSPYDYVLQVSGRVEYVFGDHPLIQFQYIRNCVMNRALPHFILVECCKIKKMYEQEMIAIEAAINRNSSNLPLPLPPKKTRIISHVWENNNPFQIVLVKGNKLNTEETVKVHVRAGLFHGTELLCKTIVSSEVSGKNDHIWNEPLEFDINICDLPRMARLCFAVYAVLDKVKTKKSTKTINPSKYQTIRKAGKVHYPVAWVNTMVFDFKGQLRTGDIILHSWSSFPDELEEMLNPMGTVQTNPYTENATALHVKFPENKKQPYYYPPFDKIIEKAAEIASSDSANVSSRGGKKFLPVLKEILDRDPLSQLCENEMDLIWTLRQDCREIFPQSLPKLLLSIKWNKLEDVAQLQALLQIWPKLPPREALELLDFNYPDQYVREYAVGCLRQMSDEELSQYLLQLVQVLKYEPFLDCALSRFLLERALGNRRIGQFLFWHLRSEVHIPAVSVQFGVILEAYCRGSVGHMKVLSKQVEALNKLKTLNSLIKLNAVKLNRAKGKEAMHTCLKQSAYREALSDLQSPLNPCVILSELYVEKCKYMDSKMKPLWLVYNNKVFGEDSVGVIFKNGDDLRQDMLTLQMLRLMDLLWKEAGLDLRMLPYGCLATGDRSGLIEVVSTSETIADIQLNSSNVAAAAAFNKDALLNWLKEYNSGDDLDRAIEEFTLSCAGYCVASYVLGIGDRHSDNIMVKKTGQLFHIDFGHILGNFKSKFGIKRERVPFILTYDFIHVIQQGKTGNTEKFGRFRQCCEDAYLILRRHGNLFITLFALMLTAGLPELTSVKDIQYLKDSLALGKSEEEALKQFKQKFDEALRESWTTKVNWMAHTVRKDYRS
T1 sequence (P27986 whole entry partner): as the sequence (P27986 whole entry partner) above

SMILES	pIC50 (PI3K beta (PI3Kb))	pIC50 (PI3K gamma (PI3Kg))	pIC50 (mTOR)	pIC50 [1]	pIC50 (PI3K delta (PI3Kd))	pIC50 (PI3K alpha (PI3Kα))	pIC50 [2]
C[C@H]1COCCN1c1nc(-c2ccc(NC(=O)NC3CCCCC3)cc2)nc(-c2ccccc2S(C)(=O)=O)n1 [Example 28, (S)-1-cyclohexyl-3-(4-(4-(3-methylmorpholino)-6-(2-(methylsulfonyl)phenyl)-1,3,5-triazin-2-yl)phenyl)urea]	< 5.00	< 5.00	5.00 to 6.00	< 5.00	< 5.00	< 5.00	
CNC(=O)Nc1ccc(-c2nc(-c3cc(F)ccc3S(C)(=O)=O)nc(N3CCOC[C@@H]3C)n2)cc1 [Example 2, (S)-1-(4-(4-(5-fluoro-2-(methylsulfonyl)phenyl)-6-(3-methylmorpholino)-1,3,5-triazin-2-yl)phenyl)-3-methylurea]			6.00 to 7.00	< 5.00		< 5.00	> 7.00
CS(=O)(=O)c1ccccc1-c1nc(-c2ccc(NC(=O)NC3CC3)cc2)nc(N2CCOCC2CO)n1 (centres unmarked) [Example 23, 1-cyclopropyl-3-(4-(4-(3-(hydroxymethyl)morpholino)-6-(2-(methylsulfonyl)phenyl)-1,3,5-triazin-2-yl)phenyl)urea]	< 5.00	< 5.00	5.00 to 6.00	< 5.00	< 5.00	< 5.00	
C[C@H]1COCCN1c1nc(-c2ccc(NC(=O)NCC(F)F)cc2)nc(-c2cc(F)ccc2S(C)(=O)=O)n1 [Example 43, (S)-1-(2,2-difluoroethyl)-3-(4-(4-(5-fluoro-2-(methylsulfonyl)phenyl)-6-(3-methylmorpholino)-1,3,5-triazin-2-yl)phenyl)urea]			6.00 to 7.00	< 5.00		< 5.00	> 7.00
C[C@H]1COCCN1c1nc(-c2ccc(NC(=O)NCCC(N)C(F)(F)F)cc2)nc(-c2ccccc2S(C)(=O)=O)n1 (stereo partly drawn) [Example 37, 1-(3-amino-4,4,4-trifluorobutyl)-3-(4-(4-((S)-3-methylmorpholino)-6-(2-(methylsulfonyl)phenyl)-1,3,5-triazin-2-yl)phenyl)urea]			5.00 to 6.00			< 5.00	
C[C@H]1COCCN1c1nc(-c2ccc(NC(=O)NCCF)cc2)nc(-c2cc(F)ccc2S(C)(=O)=O)n1 [Example 44, (S)-1-(4-(4-(5-fluoro-2-(methylsulfonyl)phenyl)-6-(3-methylmorpholino)-1,3,5-triazin-2-yl)phenyl)-3-(2-fluoroethyl)urea]			6.00 to 7.00	< 5.00		< 5.00	> 7.00
C[C@H]1COCCN1c1nc(-c2ccc(NC(=O)NCCC(O)C(F)(F)F)cc2)nc(-c2ccccc2S(C)(=O)=O)n1 (stereo partly drawn) [Example 38, 1-(4-(4-((S)-3-methylmorpholino)-6-(2-(methylsulfonyl)phenyl)-1,3,5-triazin-2-yl)phenyl)-3-(4,4,4-trifluoro-3-hydroxybutyl)urea]	< 5.00	< 5.00	< 5.00	< 5.00	< 5.00	< 5.00	
CNC(=O)Nc1ccc(-c2nc(-c3cccnc3S(C)(=O)=O)nc(N3CCOC[C@@H]3C)n2)cc1 [Example 41, (S)-1-methyl-3-(4-(4-(3-methylmorpholino)-6-(2-(methylsulfonyl)pyridin-3-yl)-1,3,5-triazin-2-yl)phenyl)urea]			> 7.00	< 5.00		5.00 to 6.00	> 7.00
CS(=O)(=O)c1ccc(F)cc1-c1nc(-c2ccc(NC(=O)NC3CC3)cc2)nc(N2CC3CCC(C2)O3)n1 [Example 39, 1-(4-(4-(8-oxa-3-azabicyclo[3.2.1]octan-3-yl)-6-(5-fluoro-2-(methylsulfonyl)phenyl)-1,3,5-triazin-2-yl)phenyl)-3-cyclopropylurea]			5.00 to 6.00			< 5.00	6.00 to 7.00
CCNC(=O)Nc1ccc(-c2nc(-c3cccnc3S(C)(=O)=O)nc(N3CCOC[C@@H]3C)n2)cc1 [Example 40, (S)-1-ethyl-3-(4-(4-(3-methylmorpholino)-6-(2-(methylsulfonyl)pyridin-3-yl)-1,3,5-triazin-2-yl)phenyl)ure]			> 7.00	< 5.00		5.00 to 6.00	> 7.00
CCNC(=O)Nc1ccc(-c2nc(-c3cc(F)ccc3S(C)(=O)=O)nc(N3CCOC[C@@H]3C)n2)cc1 [Example 42, (S)-1-ethyl-3-(4-(4-(5-fluoro-2-(methylsulfonyl)phenyl)-6-(3-methylmorpholino)-1,3,5-triazin-2-yl)phenyl)urea]			6.00 to 7.00	< 5.00		< 5.00	> 7.00
